Where two headings read alike, the source gives them in different places.
Key:
[1] = pH stability; type: physicochemical; conditions: 5.5 mM, buffer/ethanol 5:1 v/v; for remaining at 100 h, 5500 µM: read-out: Residual amounts (%) after 100 hours; for Residual amounts (%) after 100 hours: 5500 µM
Excerpt: The chromanol glycoside obtained in Examples 1 to 5 [6-hydroxy-2,5,7,8-tetramethyl chroman-2-methyl-α-D-glucopyranoside represented by the aforementioned formula (4)], the chromanol glycoside obtained in Examples 6 to 8 [6-hydroxy-2,5,7,8-tetramethyl chroman-2-ethyl-α-D-glucopyranoside represented by the aforementioned formula (7)], the chromanol glycoside obtained in Examples 4 and 5 [6-hydroxy-2,5,7,8-tetramethyl chroman-2-methyl-α-D-maltopyranoside represented by the aforementioned formula (5)], and the chromanol glycoside obtained in Example 8 [6 -hydroxy-2,5,7,8-tetramethyl chroman-2-ethyl-α-D-maltopyranoside represented by the aforementioned formula (8)] were tested for pH stability. This test was specifically performed by incubating a 5.5 mM chromanol glycoside solution (buffer/ethanol, 5:1 v/v) having a varying pH value. At regular intervals, aliquots of the reaction mixture were withdrawn and the residual amounts of chromanol glycoside were measured by HPC. For the purpose of comparison, the 2-substituted alcohols represented by the aforementioned formulas (3) and (6) and Trolox were similarly tested.
It is clearly noted from the test results that the conversion of 2-substituted alcohols into respective glycosides enhances pH stability. The buffer used for the test were 100 mM acetate buffer of pH 5.5, 100 mM phosphate buffer of pH 7.0, and 100 mM tris-HCl buffer of pH 8,5.

[2] = solubility in water; type: physicochemical; conditions: 25 °C, constant stirring at 200 rpm, HPLC; for solubility: water, read-out: solubility in water (amounts of sample dissolved in 1 ml of water)
Excerpt: The chromanol glycoside obtained in Examples 1 to 5 [6-hydroxy-2,5,7,8-tetramethyl chroman-2-methyl-α-D-glucopyranoside represented by the aforementioned formula (4)], the chromanol glycoside obtained in Examples 6 to 8 [6-hydroxy-2,5,7,8-tetramethyl chroman-2-ethyl-α-D-glucopyranoside represented by the aforementioned formula (7)], the chromanol glycoside obtained in Examples 4 and 5 [6-hydroxy-2,5,7,8-tetramethyl chroman-2-methyl-α-D-maltopyranoside represented by the aforementioned formula (5)], and the chromanol glycoside obtained in Example 8 [6-hydroxy-2,5,7,8-tetramethyl chroman-2-ethyl-α-D-maltopyranoside represented by the aforementioned formula (8)] were tested for solubility in water. Specifically, this test was performed by adding an excess amount of a given chromanol glycoside to 1 ml of water. The reaction mixture was incubated at 25° C. for […] with constant stirring at 200 rpm. After 100 hours, the reaction mixture was transferred into a membrane filter (produced by Nihon Millipore Ltd. and marketed under trademark designation of "HPLC Sample Prep C02-LG") and insoluble substances were removed by centrifugation (4,100×g, 10 minutes, 20° C.). The filtered solution was subjected to HPLC to determine the amount of chromanol glycoside remaining in the aqueous solution. For the purpose of comparison, the 2-substituted alcohols represented by the aforementioned formulas (3) and […] and Trolox were similarly tested.
The numerals given in the tables represent the amounts of sample dissolved in 1 ml of water.

[3] = hydroperoxidation of methyl linoleate via radical chain reaction in hexane/isopropyl alcohol; type: biochemical; conditions: 0.1 μmol antioxidant in 1.1 ml hexane/isopropyl alcohol 1:1; 37 °C; oil-soluble radical generator; in words
Excerpt: Antioxidant activity on the chromanol glycoside obtained in Examples 1 to 5 [6-hydroxy-2,5,7,8-tetramethyl chroman-2-methyl-α-D-glucopyranoside represented by the aforementioned formula (4)], the chromanol glycoside obtained in Examples 6 to 8 [6-hydroxy-2,5,7,8-tetramethyl chroman-2-ethyl-α-D-glucopyranoside represented by the aforementioned formula (7)], the chromanol glycoside obtained in Examples 4 and 5 [6-hydroxy-2,5,7,8-tetramethyl chroman-2-methyl-α-D-maltopyranoside represented by the aforementioned formula (5)], and the chromanol glycoside obtained in Example 8 [6-hydroxy-2,5,7,8-tetramethyl chroman-2-ethyl-α-D-maltopyranoside represented by the aforementioned formula (8)] was investigated by measuring the hydroperoxidation of methyl linoleate via radical chain reaction. Specifically, this test was performed by incubating 132 μmol of methyl linoleate, 16.5 μmol of an oil-soluble radical generator [2,2'-azo-bis(2,4-dimethyl valeronitrile)], 0.1 μmol of antioxidant in 1.1 ml of a hexane/isopropyl alcohol (1:1 v/v), and the mixture was incubated at 37° C. At regular intervals, aliquots of the reaction mixture were withdrawn and the amount of methyl linoleate hydroperoxides were measured by HPLC. […] EXAMPLE 10

[4] = antioxidant activity using liposomal membranes (phosphatidylcholine hydroperoxides); type: biochemical; conditions: 0.1 μmol antioxidant in 1.1 ml 10 mM tris-HCl buffer pH 7.4; water-soluble radical generator; in words
Excerpt: Antioxidant activity on the chromanol glycoside obtained in Examples 1 to 5 [6-hydroxy-2,5,7,8-tetramethyl chroman-2-methyl-α-D-glucopyranoside represented by the aforementioned formula (4)[, the chromanol glycoside obtained in Examples 6 to 8 [6-hydroxy-2,5,7,8-tetramethyl chroman-2-ethyl-α-D-glucopyranoside represented by the aforementioned formula (7)], the chromanol glycoside obtained in Examples 4 and 5 [6-hydroxy-2,5,7,8-tetramethyl chroman-2-methyl-α-D-maltopyranoside represented by the aforementioned formula (5)], and the chromanol glycoside obtained in Example 8 [6-hydroxy-2,5,7,8-tetramethyl chroman-2-ethyl-α-D-malto-pyranoside represented by the aforementioned formula (8)] was investigated by using a liposonal membranes. Specifically, this test was performed by adjusting a reaction solution consisting of 5.5 μmol of a multilameller liposomes of egg yolk phosphatidylcholine, 16.5 μmol of a water-soluble radical generator [2,2'-azo-bis(2-amidinopropane) dihydrochloride], and 0.1 μmol of antioxidant in 1.1 ml of a 10 mM tris-HCl buffer (pH 7.4). At regular intervals, aliquots of the reaction mixture were withdrawn and the amount of phosphatidylcholine hydroperoxides were measured by HPLC.

[5] = acetate buffer/ethanol 5:1, pH 5.5, pH 5.5 (100 mM acetate buffer)
[6] = phosphate buffer/ethanol 5:1, pH 7, pH 7.0 (100 mM phosphate buffer)
[7] = tris-hcl buffer/ethanol 5:1, pH 8.5, pH 8.5 (100 mM tris-HCl buffer)

| SMILES | remaining at 100 h, 5500 µM [1, 5] | remaining at 100 h, 5500 µM [1, 6] | remaining at 100 h, 5500 µM [1, 7] | solubility [2] | antioxidant activity (methyl linoleate hydroperoxides) [3] | antioxidant activity (phosphatidylcholine hydroperoxides) [4] | further results |
| --- | --- | --- | --- | --- | --- | --- | --- |
| Cc1c(C)c2c(c(C)c1O)CCC(C)(CO)O2 (racemic) [formula (3), reference compound] | 73% | 29% | 7% | 1 mg/mL |  |  |  |
| Cc1c(C)c2c(c(C)c1O)CCC(C)(CCO)O2 (racemic) [formula (6), reference compound] | 63% | 19% | 3% | 0.1 mg/mL |  |  |  |
| Cc1c(C)c2c(c(C)c1O)CCC(C)(CO[C@H]1O[C@H](CO)[C@@H](O)[C@H](O)[C@H]1O)O2 (stereo partly drawn) [formula (4), 6-hydroxy-2,5,7,8-tetramethyl chroman-2-methyl-α-D-glucopyranoside] | 91% | 41% | 20% | ~1000 mg/mL | excel 3,5-tert-butyl-4-hydroxytoluene and equal α-tocopherol | more effective antioxidants than ascorbic acid | Residual amounts (%) after 100 hours ([1]; pH 5.5 (100 mM acetate buffer), listed as formula (4) of Example 2, 6000 min): 85%; Residual amounts (%) after 100 hours ([1]; pH 5.5 (100 mM acetate buffer), listed as formula (4) of Example 3, 6000 min): 89%; Residual amounts (%) after 100 hours ([1]; pH 5.5 (100 mM acetate buffer), listed as formula (4) of Example 4, 6000 min): 84%; Residual amounts (%) after 100 hours ([1]; pH 5.5 (100 mM acetate buffer), listed as formula (4) of Example 5, 6000 min): 88%; Residual amounts (%) after 100 hours ([1]; pH 7.0 (100 mM phosphate buffer), listed as formula (4) of Example 2, 6000 min): 42%; Residual amounts (%) after 100 hours ([1]; pH 7.0 (100 mM phosphate buffer), listed as formula (4) of Example 3, 6000 min): 43%; Residual amounts (%) after 100 hours ([1]; pH 7.0 (100 mM phosphate buffer), listed as formula (4) of Example 4, 6000 min): 44%; Residual amounts (%) after 100 hours ([1]; pH 7.0 (100 mM phosphate buffer), listed as formula (4) of Example 5, 6000 min): 43%; Residual amounts (%) after 100 hours ([1]; pH 8.5 (100 mM tris-HCl buffer), listed as formula (4) of Example 2, 6000 min): 19%; Residual amounts (%) after 100 hours ([1]; pH 8.5 (100 mM tris-HCl buffer), listed as formula (4) of Example 4, 6000 min): 19%; Residual amounts (%) after 100 hours ([1]; pH 8.5 (100 mM tris-HCl buffer), listed as formula (4) of Example 5, 6000 min): 21%; solubility in water (amounts of sample dissolved in 1 ml of water) ([2]; listed as formula (4) of Example 3): About 1000 mg/ml; solubility in water (amounts of sample dissolved in 1 ml of water) ([2]; listed as formula (4) of Example 4): About 1000 mg/ml; solubility in water (amounts of sample dissolved in 1 ml of water) ([2]; listed as formula (4) of Example 5): About 1000 mg/ml |
| Cc1c(C)c2c(c(C)c1O)CCC(C)(CO[C@H]1O[C@H](CO)[C@@H](O[C@H]3O[C@H](CO)[C@@H](O)[C@H](O)[C@H]3O)[C@H](O)[C@H]1O)O2 (stereo partly drawn) [formula (5), 6-hydroxy-2,5,7,8-tetramethyl chroman-2-methyl-α-D-maltopyranoside] | 84% | 40% | 19% |  | excel 3,5-tert-butyl-4-hydroxytoluene and equal α-tocopherol | more effective antioxidants than ascorbic acid | Residual amounts (%) after 100 hours ([1]; pH 5.5 (100 mM acetate buffer), listed as formula (5) of Example 5, 6000 min): 86%; Residual amounts (%) after 100 hours ([1]; pH 7.0 (100 mM phosphate buffer), listed as formula (5) of Example 5, 6000 min): 44%; Residual amounts (%) after 100 hours ([1]; pH 8.5 (100 mM tris-HCl buffer), listed as formula (5) of Example 5, 6000 min): 20% |

— patent US5478812A, “Chromanol glycoside and method for production thereof” (CCI Corporation, priority 1993, dated 1995)
